“And” between values parts separate entries of the source, which are not always exact repeats. Equal values may be shown once. Toxic doses and inconclusive results are not listed.

The experiment concerns L1210 leukemia ip in BDF1 mice, survival T/C. Description: NCI In Vivo Anticancer Drug Screen. Data for tumor model L1210 Leukemia (intraperitoneal) in B6D2F1 (BDF1) mice. The note with it: endpoint: mean survival time, higher = longer survival. Summed up: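 Ratio derived from survival: compound-dosed mice over vehicle-dosed mice, all bearing a transplantable tumor.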
Setting [1] is: dose: 75.0 mg/kg/injection, schedule: Q01DX001 (ip), vehicle: saline.
Where [2] appears, read: dose: 150.0 mg/kg/injection, schedule: Q01DX001 (ip), vehicle: saline.
Where [3] appears, read: dose: 300.0 mg/kg/injection, schedule: Q01DX001 (ip), vehicle: saline.
Where [4] appears, read: dose: 100.0 mg/kg/injection, schedule: Q04DX003 (ip), vehicle: Klucel (hydroxypropylcellulose) (HPC).
Where [5] appears, read: dose: 200.0 mg/kg/injection, schedule: Q04DX003 (ip), vehicle: Klucel (hydroxypropylcellulose) (HPC).
Where [6] appears, read: dose: 400.0 mg/kg/injection, schedule: Q04DX003 (ip), vehicle: Klucel (hydroxypropylcellulose) (HPC).
[7] abbreviates: dose: 100.0 mg/kg/injection, schedule: Q01DX001 (ip), vehicle: carboxymethylcellulose (CMC).
Where [8] appears, read: dose: 200.0 mg/kg/injection, schedule: Q01DX001 (ip), vehicle: carboxymethylcellulose (CMC).
[9] abbreviates: dose: 400.0 mg/kg/injection, schedule: Q01DX001 (ip), vehicle: carboxymethylcellulose (CMC).
The mark [10] stands for this setting: dose: 100.0 mg/kg/injection, schedule: Q01DX009 (ip), vehicle: saline.
Setting [11] is: dose: 100.0 mg/kg/injection, schedule: Q04DX003 (ip), vehicle: saline.
The mark [12] stands for this setting: dose: 200.0 mg/kg/injection, schedule: Q01DX009 (ip), vehicle: saline.
Where [13] appears, read: dose: 200.0 mg/kg/injection, schedule: Q04DX003 (ip), vehicle: saline.

For `Nc1ccc(S(=O)[O-])cc1.Nc1ccc(S(=O)[O-])cc1.[Zn+2]`, the T/C runs as follows: under setting [1], 95 % of control; under setting [2], 96 % of control; under setting [3], 102 % of control.

In the case of `CCCCS/C=C1/Sc2cc[nH]c2C1=O`, the T/C runs as follows: under setting [4], 96 % of control; under setting [5], 96 % of control; under setting [6], 94 % of control.

`CCOC(=O)C(C#N)C(CC)(CC)C1CCCCC1` (centres undefined): the T/C is 102 % of control (dose: 50.0 mg/kg/injection, schedule: Q01DX001 (ip), vehicle: carboxymethylcellulose (CMC)); 102 % of control under setting [7]; 96 % of control under setting [8]; 113 % of control under setting [9].

For `CCN(CC)C(N)=S`, the T/C is 108 % of control (dose: 100.0 mg/kg/injection, schedule: Q01DX009 (ip), vehicle: Klucel (hydroxypropylcellulose) (HPC)); 106 % of control under setting [4]; 100 % of control (dose: 200.0 mg/kg/injection, schedule: Q01DX009 (ip), vehicle: Klucel (hydroxypropylcellulose) (HPC)); 103 % of control under setting [5]; 100 % of control (dose: 400.0 mg/kg/injection, schedule: Q01DX009 (ip), vehicle: Klucel (hydroxypropylcellulose) (HPC)); 112 % of control under setting [6].

Turning to `FC(Cl)(Cl)c1nc2nc(Cl)c(Cl)nc2[nH]1`, the T/C was 95 % of control (dose: 25.0 mg/kg/injection, schedule: Q01DX009 (ip), vehicle: water); 94 % of control (dose: 50.0 mg/kg/injection, schedule: Q01DX009 (ip), vehicle: water); 97 % of control (dose: 100.0 mg/kg/injection, schedule: Q01DX009 (ip), vehicle: water).

In the case of `O=C(Nc1ccc(F)cc1)Nc1ccc(Cl)cc1`, the T/C was 86 % of control (dose: 100.0 mg/kg/injection, schedule: Q04DX003 (ip), vehicle: saline with Tween-80); 86 % of control (dose: 200.0 mg/kg/injection, schedule: Q04DX003 (ip), vehicle: saline with Tween-80); 87 % of control (dose: 400.0 mg/kg/injection, schedule: Q04DX003 (ip), vehicle: saline with Tween-80).

`O=C(Nc1ccc(C2=NCCN2)cc1)c1ccc(F)c(C(=O)Nc2ccc(C3=NCCN3)cc2)c1`: the T/C was 105 % of control (dose: 2.25 mg/kg/injection, schedule: Q01DX Z (ip), vehicle: water); 107 % of control (dose: 4.5 mg/kg/injection, schedule: Q01DX Z (ip), vehicle: water); 116 % of control (dose: 9.0 mg/kg/injection, schedule: Q01DX Z (ip), vehicle: water); 154 % of control (dose: 37.5 mg/kg/injection, schedule: Q01DX Z (ip), vehicle: water); 189 % of control (dose: 75.0 mg/kg/injection, schedule: Q01DX Z (ip), vehicle: water); 241 % of control (dose: 150.0 mg/kg/injection, schedule: Q01DX Z (ip), vehicle: water). Moreover, where the note is “dose: 300.0 mg/kg/injection, schedule: Q01DX Z (ip), vehicle: water”, the T/C is 229 % of control.

Take `CC(=O)OCC1OC(n2c(O)c(/C=C3\C=Nc4ccccc43)sc2=S)C(OC(C)=O)C(OC(C)=O)C1OC(C)=O` (centres undefined): the T/C reads like this: (dose: 12.5 mg/kg/injection, schedule: Q01DX005 (ip), vehicle: other) 94 % of control; (dose: 25.0 mg/kg/injection, schedule: Q01DX005 (ip), vehicle: other) 91 % of control; (dose: 50.0 mg/kg/injection, schedule: Q01DX005 (ip), vehicle: other) 92 % of control; (dose: 100.0 mg/kg/injection, schedule: Q01DX005 (ip), vehicle: other) 111 % of control; (dose: 200.0 mg/kg/injection, schedule: Q01DX005 (ip), vehicle: other) 94 % of control.

For the compound `ClCCN(CCCl)c1ccc(Nc2nc(Nc3ccc(N(CCCl)CCCl)cc3)c3ccccc3n2)cc1`, the T/C is 105 % of control (dose: 25.0 mg/kg/injection, schedule: Q04DX002 (ip), vehicle: saline); 113 % of control (dose: 50.0 mg/kg/injection, schedule: Q04DX002 (ip), vehicle: saline); 111 % of control (dose: 100.0 mg/kg/injection, schedule: Q04DX002 (ip), vehicle: saline); 106 % of control and 109 % of control (dose: 200.0 mg/kg/injection, schedule: Q04DX002 (ip), vehicle: saline); 95 % of control (dose: 400.0 mg/kg/injection, schedule: Q04DX002 (ip), vehicle: saline).

Take `O=C(CCCCOc1ccc([N+](=O)[O-])cc1Cl)Nc1ccc(S(=O)(=O)F)cc1`: the T/C runs as follows: under setting [4], 97 % of control; under setting [5], 90 % of control; under setting [6], 90 % of control.

On to `COC(=O)C1C(C)(C(=O)OC)N=NC1(c1ccccc1)c1ccccc1` (centres undefined), for which the T/C was 101 % of control (dose: 100.0 mg/kg/injection, schedule: Q01DX001 (ip), vehicle: steriod suspending solution); 104 % of control (dose: 200.0 mg/kg/injection, schedule: Q01DX001 (ip), vehicle: steriod suspending solution); 98 % of control (dose: 400.0 mg/kg/injection, schedule: Q01DX001 (ip), vehicle: steriod suspending solution).

On to `NCCN1CCN=C1C1=NCCN1CCN`, for which the T/C reads like this: under setting [10], 98 % of control; under setting [11], 100 % of control; under setting [12], 93 % of control; under setting [13], 98 % of control; (dose: 400.0 mg/kg/injection, schedule: Q01DX009 (ip), vehicle: saline) 98 % of control; (dose: 400.0 mg/kg/injection, schedule: Q04DX003 (ip), vehicle: saline) 96 % of control.

Consider `O=[N+]([O-])c1cnc(/C=C/c2ccccc2)nc1`, for which the T/C by setting is: under setting [7], 97 % of control; under setting [8], 95 % of control; under setting [9], 89 % of control.

In the case of `C/C=C/C1=C(Cl)C(=O)[C@@H](Cl)[C@@]1(O)C(=O)OC`, the T/C (dose: 1.25 mg/kg/injection, schedule: Q01DX009 (ip), vehicle: saline) was 101 % of control; the T/C (dose: 2.5 mg/kg/injection, schedule: Q01DX009 (ip), vehicle: saline) is 97 % of control; the T/C (dose: 2.5 mg/kg/injection, schedule: Q04DX003 (ip), vehicle: saline) is 101 % of control; the T/C (dose: 5.0 mg/kg/injection, schedule: Q01DX009 (ip), vehicle: saline) is 103 % of control; the T/C (dose: 5.0 mg/kg/injection, schedule: Q04DX003 (ip), vehicle: saline) is 95 % of control; the T/C (dose: 10.0 mg/kg/injection, schedule: Q01DX001 (ip), vehicle: saline) is 94 % of control. Besides, for the setting “dose: 10.0 mg/kg/injection, schedule: Q04DX003 (ip), vehicle: saline”, the T/C is 100 % of control.

On to `O=C(O)C1C(C(=O)O)C2C=CC1C21CCCC1` (centres undefined), for which the T/C was 97 % of control under setting [1], 97 % of control under setting [2] and 95 % of control under setting [3].

Take `N#[N+]c1c(O)cc(S(=O)(=O)O)c2ccccc12`: the T/C by setting is: under setting [10], 92 % of control; under setting [11], 94 % of control; under setting [13], 101 % of control.

Consider `C=C(Cl)COC(=O)C(C)O` (centres undefined), for which the T/C is, setting by setting: (dose: 25.0 mg/kg/injection, schedule: Q01DX001 (ip), vehicle: Klucel (hydroxypropylcellulose) (HPC)) 98 % of control; (dose: 50.0 mg/kg/injection, schedule: Q01DX001 (ip), vehicle: Klucel (hydroxypropylcellulose) (HPC)) 96 % of control; (dose: 100.0 mg/kg/injection, schedule: Q01DX001 (ip), vehicle: Klucel (hydroxypropylcellulose) (HPC)) 100 % of control.

As for `NC(CCC(=O)NC(CSC(c1ccccc1)(c1ccccc1)c1ccc(F)cc1)C(=O)NCC(=O)O)C(=O)O` (centres undefined), the T/C reads like this: (dose: 25.0 mg/kg/injection, schedule: Q01DX009 (ip), vehicle: saline) 124 % of control; (dose: 50.0 mg/kg/injection, schedule: Q01DX009 (ip), vehicle: other) 116 % of control; (dose: 50.0 mg/kg/injection, schedule: Q01DX009 (ip), vehicle: saline) 118 % of control; under setting [12], 152 % of control.

The record behind these values is PubChem BioAssay AID248 (DTP/NCI, 2004).
